From patent US20230190852A1, “COMPOSITIONS AND METHODS FOR JOINT HEALTH” (Unigen, Inc., priority 2013, published 2023)

How the values were obtained:
recombinant human BKb2R = target: T1, recombinant human BKb2R (Homo sapiens, UniProt P30411); assay: Bradykinin Radioligand Binding Assay (BKB2); details: manually calculated by Cheng-Prusoff equation; read-out: BKB2 Ki (μg/ml) (converted)
T1 construct: expressed in transfected cells; host or cells: CHO-K1
T1 sequence (P30411 1-391): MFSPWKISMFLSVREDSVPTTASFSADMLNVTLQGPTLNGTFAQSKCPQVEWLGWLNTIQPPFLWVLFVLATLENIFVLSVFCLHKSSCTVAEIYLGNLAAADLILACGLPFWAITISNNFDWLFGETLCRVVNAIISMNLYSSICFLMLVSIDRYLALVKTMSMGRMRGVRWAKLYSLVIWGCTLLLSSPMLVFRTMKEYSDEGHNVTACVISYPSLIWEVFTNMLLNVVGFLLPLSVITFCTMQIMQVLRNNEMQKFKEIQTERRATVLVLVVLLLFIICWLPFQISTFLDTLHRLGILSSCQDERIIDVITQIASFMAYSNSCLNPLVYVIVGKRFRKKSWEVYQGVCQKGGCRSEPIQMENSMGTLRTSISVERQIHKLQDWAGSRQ
Experimental: (§1) BKB1 binding assay, as described in Example 17, was used to test curcumin compound isolated from a Curcuma longa extract (Compound 11), as well as commercially available curcumin purchased from Sigma-Aldrich (C1386). Curcumin was tested at final concentrations ranging from 200 μM to 5 nM. Binding curves were plotted by non-linear regression fit (using GraphPad Prizm software). Ki values were computed using Cheng-Prusoff algorithm. In addition, inhibition of BKB2 receptor binding activity by curcumin was examined with methods similar to those described in Example 17 for the BKB1 receptor with some modifications. Bradykinin Radioligand Binding Assay (BKB2) was conducted using a standard assay under the following conditions: • 1. Composition of Assay Buffer: 24 mM TES, pH 6.8, 1 mM 1.10-Phenanthrioline, 0.3% BSA. • 2. Source of BKb2R: CHO-K1 cells expressing recombinant human BKb2R • 3. Ligand: [^3H]-Bradykinin 0.2 nM. • 4. Incubation time: 90 min RT. • 5. Reading: TopCount.
Commercial curcumin (Sigma, C1386) was tested at concentrations ranging from 200 μM to 5 nM. […] Ki was manually calculated by using Cheng-Prusoff equation.

BKB1 receptor = target: T2, BKB1 receptor (Homo sapiens, UniProt P46663); assay: Bradykinin B1 (BKB1) radioligand binding assay
T2 construct: Membranes from human IMR-90 lung fibroblasts, stimulated with IL-1β; endogenous in cells; host or cells: human IMR-90 lung fibroblasts, IL-1β stimulated (membranes)
T2 sequence (P46663 1-353): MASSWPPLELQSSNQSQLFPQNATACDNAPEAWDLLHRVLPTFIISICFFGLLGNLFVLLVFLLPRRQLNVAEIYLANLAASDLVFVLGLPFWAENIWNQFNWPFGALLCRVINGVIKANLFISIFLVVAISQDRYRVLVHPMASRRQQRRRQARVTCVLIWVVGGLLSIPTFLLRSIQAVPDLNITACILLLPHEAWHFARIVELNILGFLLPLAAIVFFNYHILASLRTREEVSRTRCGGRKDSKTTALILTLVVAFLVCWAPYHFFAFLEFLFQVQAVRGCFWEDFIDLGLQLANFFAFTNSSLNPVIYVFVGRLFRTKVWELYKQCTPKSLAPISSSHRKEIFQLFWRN
Experimental: as §1, with “Membranes from human IMR-90 lung fibroblasts, stimulated with IL-1β in modified HEPES buffer (PH=7.4), were incubated with a test sample in the presence of 0.9 nM [^3H](Des-[…])-Kallidin for 60 minutes at room temperature. After incubation, membranes were filtered and washed five times with modified DPBS buffer (pH=7.4). Samples were scintillation counted to determine the amount of specifically bound to the BKB1 receptor containing membrane. […] BKB1 binding” for “BKB1 binding”, “some modifications. […] Composition of” for “some modifications. Bradykinin Radioligand Binding Assay (BKB2) was conducted using a standard assay under the following conditions: • 1. Composition of”

CD-1 mice [1] = assay: Nociceptive behavior model elicited by intraplantar injection of formalin; format: in vivo
Experimental: Mice (n=6 per group) were habituated under inverted Plexiglas observation chamber for 30 minutes to allow them to acclimatize to their surroundings. […] Mice were immediately transferred to their individual observational chamber. […] Mirrors positioned behind the chambers enabled observation of the right hind paw when it was obscured from direct view. […] These behavioral reactions observed for the first five minutes are due to direct action of the irritant on sensory nerve endings where is believed to be as a result of inflammation in the later phase. […] Mice were treated with curcumin (50, 100, 150 or 200 mg/kg) or ibuprofen (200 mg/kg) orally half an hour before intraplantar formalin injection.

Lewis rats = assay: Carrageenan-induced rat paw edema model (paw edema and pain sensitivity); format: in vivo; details: for Pain sensitivity, percent change of vehicle / Paw edema, percent change of vehicle: 166 mg/kg oral 1 hr after carrageenan, female Lewis rats
Experimental: Local inflammation was induced by intraplantar injection of carrageenan λ (Sigma, St. Louis, Mo.; 100 μl of 1% [w/v] in saline) into the plantar surface of right hind paw of sedated rat (with 2.5% isoflurane) at time 0 (T=0) (Gamache et al., J Neurosurg. 65:679, 1986; Guay et al., J. Biol. Chem. 279:24866, 2004; Chou et al., Anesth. Analg. 97:1724, 2003). Rats were acclimated in a procedure room for 20-30 minutes before each measurement was taken. Allodynia was evaluated by measuring responsiveness to the tip of a Randell-Selitto paw pressure test applied perpendicular to the central plantar surface of the right hind paw. A positive response to the applied pressure, noted by sharp withdrawal of the paw, was recorded automatically by an electronic Von Frey Anesthesiometer (2390 series Electrovonfrey, IITC, Woodland Hills, Calif.) (Vivancos et al., Braz. J. Med. Biol. Res. 37:391, 2004). Mechanical allodynia was evaluated before carrageenan inoculation, and thereafter at 1 hr, 2 hr, 4 hr and 6 hr. Paw edema volume was measured with the use of Plethysmometer (IITC, Woodland Hills, Calif.; Model 520) at time 0 (before carrageenan), and then 1 hr, 2 hr, 4 hr, and 6 hr after carrageenan injection. Animals (N=5 per group) were orally gavaged with a positive control ibuprofen (Spectrum Chemical MFG, Gardena, Calif.) (100 or 200 mg/kg); test articles such as: extracts, and combinations of extracts at various doses from 100, 200, 300 to 400 mg/kg and vehicle control (propylene glycol) were given 1 hour after carrageenan inoculation unless specified otherwise.

[2] = system: Rabbit cartilage explants; assay: Ex vivo glycosaminoglycans (GAG) release assay; format: cell-based
Experimental: Articular cartilage from hock joints of rabbits (2.5 kg body weight) was removed immediately after each animal was sacrificed and articular cartilage explants were obtained by following the method described by Sandy et al. (Biochem. Biophy Acta 543:36, 1978). Briefly, after the articular surfaces were surgically exposed under sterile conditions, approximately 200-220 mg articular surfaces per joint were dissected and submerged into complete medium (DMEM, supplemented with heat inactivated 5% FBS; penicillin 100 U/ml; streptomycin 100 ug/ml). They were then rinsed several times with the complete medium and incubated for 1 to 2 days at 37° C. in a humidified 5% CO2/95% air incubator for stabilization. The complete medium was replaced with a basal medium (DMEM, supplemented with heat-inactivated 1% FBS, 10 mM HEPES, and penicillin 100 U/ml streptomycin 100 μg/ml). Approximately 30 mg cartilage pieces (2×3×0.35 mm/piece) were placed in 24-well plates and treated with given concentrations of test agents. After pretreatment for 1 h, 5 ng/ml of rhIL-1α was added to the culture medium and further incubated at 37° C. in a humidified 5% CO2/95% air incubator. The culture medium was collected 24 h later and stored at −20° C. until assay.
The amount of sulphated GAGs (e.g., released from proteoglycans) in the medium at the end of the reaction reflects the amount of articular cartilage degradation, which was determined using the commercially available 1,9-dimethy-methylene blue method according to the instructions of the manufacturer (Blyscan™ assay, Accurate Chemical and Scientific Corp., Westbury, N.Y.).

CD-1 mice [3] = assay: Visceral pain perception model (Writhing's test, acetic acid); format: in vivo
Experimental: Mice (n=6 per group) were habituated under an inverted Plexiglas observation chamber for 30 minutes to allow them to acclimatize to their surroundings. Animals were orally administered treatment articles at different doses, […], or vehicle control (propylene glycol) 30 minutes before intraperitoneal administration of freshly made acetic acid solution (0.7% in 0.9% NaCl) at 10 ml/kg using a 26 gauge needle. The experiment was carried out at room temperature. After the challenge, each animal was placed back into its own individual section of the observation chamber and the number of constrictions of the abdominal muscle together with stretching was counted cumulatively over a period of 30 minutes (Collier et al., Br. J. Pharmacol. Chemother. 32:295, 1968).

COc1cc(/C=C/C(=O)CC(=O)/C=C/c2ccc(O)c(OC)c2)ccc1O [Curcumin]
Ki (recombinant human BKb2R): 157 µM
selectivity BKB1 vs BKB2 binding (BKB1 receptor): selective BKB1 antagonist
Ki (BKB1 receptor; Cheng-Prusoff, read-out: BKB1 Ki (μg/ml) (converted)): 5.9 µM
Pain Sensitivity 20-40 Minutes after Formalin Injection % ↓ vs. Vehicle (CD-1 mice [1]; 50 mg/kg oral): 53.1%
Pain Sensitivity 20-40 Minutes after Formalin Injection % ↓ vs. Vehicle (CD-1 mice [1]; 100 mg/kg oral): 52.5%
Pain Sensitivity 20-40 Minutes after Formalin Injection % ↓ vs. Vehicle (CD-1 mice [1]; 150 mg/kg oral): 60.3%
Pain Sensitivity 20-40 Minutes after Formalin Injection % ↓ vs. Vehicle (CD-1 mice [1]; 200 mg/kg oral): 74.6%

CC(=O)N[C@H]1C(O)O[C@H](CO)[C@@H](O)[C@@H]1O (stereo partly shown) [NAG, N-Acetyl Glucosamine]
Pain sensitivity, percent change of vehicle (Lewis rats; 1 hr): 8.8%
Paw edema, percent change of vehicle (Lewis rats; 1 hr): 8.2%
Pain sensitivity, percent change of vehicle (Lewis rats; 3 hr): 3.6%
Paw edema, percent change of vehicle (Lewis rats; 3 hr): 15.8%
Pain sensitivity, percent change of vehicle (Lewis rats; 5 hr): 2.6%
Paw edema, percent change of vehicle (Lewis rats; 5 hr): 6.2%
analgesic and anti-inflammatory activity (Lewis rats; oral, rosmarinic acid 200 mg/kg, eriocitrin 100 mg/kg, NAG 166 mg/kg): minimal to no activity in inhibiting pain or inflammation
activity at 25 µg/mL ([2]; Oryctolagus cuniculus, 24 h, 25 μg/ml, rhIL-1α 5 ng/ml (IL-1α alone = 100)): 95.7%
activity at 50 µg/mL ([2]; Oryctolagus cuniculus, 24 h, 50 μg/ml, rhIL-1α 5 ng/ml (IL-1α alone = 100)): 99.2%
activity at 100 µg/mL ([2]; Oryctolagus cuniculus, 24 h, 100 μg/ml, rhIL-1α 5 ng/ml (IL-1α alone = 100)): 87.5%
activity at 150 µg/mL ([2]; Oryctolagus cuniculus, 24 h, 150 μg/ml, rhIL-1α 5 ng/ml (IL-1α alone = 100)): 81.2%
protective effect on rhIL-1α-mediated PG degradation / GAG release ([2]; rhIL-1α 5 ng/ml): marginal
number of abdominal constrictions / behavioral responses in 30 minutes, Mean ± SD (CD-1 mice [3]; 300 mg/kg oral): 91.0 ± 18.7
Visceral pain sensitivity, behavioral responses, Mean ± SD (CD-1 mice [3]; 300 mg/kg oral 30 min before acetic acid i.p., observed 30 minutes, CD-1 mice): 91.0 ± 18.7
Visceral pain sensitivity, % inhibition vs vehicle (CD-1 mice [3]; 300 mg/kg oral, vs vehicle, CD-1 mice): 5.4%
